From article PMC8344021, “Discovery of Small Molecule Bak Activator for Lung Cancer Therapy” (Theranostics, 2021)

Legend:
[1] = test system: other Bcl2 family members (Bax, Bcl2, Bcl-XL, Bcl-w and Mcl-1); assay: Competitive fluorescence polarization (FP) assay, other Bcl2 family members; type: binding, human
Source text: To confirm the binding of BKA-073 with Bak, we first conducted a competitive fluorescence polarization (FP) assay using purified human Bak protein, fluorescent Bak BH3 domain peptide, and BKA-073 as described, [37]-[40]. […] There are multiple amino acid differences in the BH3 domains between Bak and other Bcl2 family members, which helps to explain why BKA-073 only binds to Bak but not to other Bcl2 family members (i.e. Bax, Bcl2, Bcl-XL, Bcl-w and Mcl-1). In addition to the FP assay, isothermal titration calorimetry (ITC) was also employed to measure Bak/BKA-073 binding. […] In addition to human Bak/BKA-073 binding, we measured mouse Bak/BKA-073 binding using ITC.
(1 x 10^5 cells) was transferred to a 5 ml culture tube, followed by the addition of 5 μl of FITC Annexin V and 5 μl propidium iodide (PI). […] Samples were analyzed by flow cytometry (BD FACSCantoTMII, BD Biosciences, San Jose, CA). ∆% cell death was calculated with the formula: (% cell death treated - % cell death non-treated) as described […]
Fluorescence polarization (FP) assay
Fluorescence polarization assay was carried out as described previously. […] The FP values (in millipolarization units) were measured using a fluorescence microplate reader at 485/530 nm (Gemini XPS, Molecular Devices). Data analysis and inhibit ory constant (Ki) value was determined by GraphPad prism software as described. […]

DMS114 xenografts = assay: SCLC DMS114 xenografts, tumor growth; type: in vivo, Nu/Nu nude mice; details: 15mg/kg/d i.p., 2-4 weeks
Experimental: (§1) Six-week-old female Nu/Nu nude mice were purchased from Envigo (Indianapolis, IN) and housed under pathogen-free conditions in microisolator cages. The animal propagation protocol was approved by the Emory Institutional Animal Care and Use Committee (IACUC) and the Emory Animal Ethics Committee. 3×10^6 lung cancer cells were injected into subcutaneous tissue in the flank region of nude mice. The tumors were allowed to grow to an average volume of 150~200 mm^3 prior to initiation of therapy as previously described, [29]. Patient-derived xenografts (PDXs, TKO-002 and TKO-005) were established as part of an IRB-approved phase II co-clinical trial of arsenic trioxide in patients with relapsed SCLC who had failed standard platinum-based chemotherapy. Tumor samples were obtained by image-guided biopsy and were directly implanted into Nu/Nu nude mice without intervening propagation in plastic culture plates. Direct serial propagation of growing tumor occurred for up to 5 generations. The animal propagation protocol was approved by the Emory IACUC and the Emory Animal Ethics Committee. Mice with SCLC and NSCLC xenografts or PDXs were treated with BKA-073 intraperitoneally (i.p.) or venetoclax orally as indicated. During treatment, tumor volume (V) was measured by caliper measurements once every two days as described previously. Mice were euthanized by CO2 inhalation at the end of treatment. […]

[2] = test system: SCLC PDXs (TKO-2 and TKO-5); assay: SCLC patient-derived xenografts, tumor growth; type: in vivo, Nu/Nu nude mice; details: 15mg/kg/d i.p., 2-4 weeks
Experimental: as §1

In the case of `COc1ccc2nc3ccccc3c(NCCNCC(C)O)c2c1` (stereo not drawn) [BKA-073], the “binding affinity with other Bcl2 family members” value [1] is reported as “very low binding affinity”, the tumor growth (DMS114 xenografts) is reported as “potently suppressed tumor growth” and the tumor growth [2] is reported as “potently suppressed tumor growth”.
